Usually Ki stands for a dissociation constant, usually derived from enzyme kinetics or from competition with a known ligand. Usually IC50 stands for the concentration that inhibits the measured activity by half.

Results on 14 molecules are retold here after US7160923B1, “Polyamine analogues as therapeutic and diagnostic agents” (MediQuest Therapeutics, Inc., priority 1997, dated 2007).

A value given as a limit tells only on which side of the number the result lay.

Data set [1] deals with polyamine transporter (PATr). Kind of data set: Polyamine transport (PAT) inhibition assay in MDA-MB-231 cells. It counts as cell-based, human. Here is the method:
(§1) In a conventional radiometric assay, the cells are incubated under growth conditions with [5,8-^14C]spermine in serum-free medium for varying intervals. Cells are plated at a known density in 24 well plates in standard tissue culture medium and allowed to adhere and grow for 15–96 hours. Due to the low signal of the radiolabel in this assay, 96 or […] well microplates cannot be used in this assay, creating a major bottleneck for throughput. Cell numbers are determined, and the plate is placed in a temperature controlled system at 37° C. Aminoguanidine is added to the medium to a final concentration of 1 mM. […] The assay is initiated by the mixing of the inhibitor and radioligand. The cells are incubated for an interval of about 1–60 minutes depending on cell type. The assay is terminated by removing the medium and cooling the plates to 4° C. The cells are then washed with cold medium three times, dissolved in 0.1% sodium dodecylsulfate, and the radioactivity in solution is determined by scintillation counting.
Therefore, the growth assay and a kinetic transport assay have been used to validate transport inhibition. […]

For data set [2], the system named is cultured cells. Put plainly: Fluorescent microscopic analysis of monodansylspermine uptake. It counts as cell-based. Here is the method:
Cells were plated in a sterile chambered slide and grown for 15–48 hours to assure adherence of cells to the slide. The medium was removed and replaced with fresh medium containing 1 μM MDS for a 10 minute incubation period at 37° C. The medium was then removed and the cells washed 3 times with phosphate buffered saline. Glycerol (50% v/v) in a volume of […] was added to the chamber, and the slide was removed and covered with a cover slip.
Using a fluorescence microscope with filters set for excitation at 340 nm and emission at 530 nm, the slide was observed under normal light and with fluorescence. Uptake of the dansylated spermine was observed microscopically and recorded on photograph.

Data set [3] concerns polyamine transporter (PATr). Put plainly: Radiometric polyamine transport (PAT) assay in A172 cells. It counts as cell-based. The procedure: as §1, with “In a conventional radiometric assay, the cells are incubated under growth conditions with [5,8-^14C]spermine in serum-free medium for varying intervals.” left out
Data set [4] has as its target spermidine/spermine acetyltransferase (SSAT) (Homo sapiens, UniProt P21673). Put plainly: Spermidine/spermine acetyltransferase (SSAT) enzyme assay. Conditions: varying concentrations; 1 mM spermidine, 1 mM 14C-Acetyl CoA, pH 7.8. It counts as biochemical. Here is the method:
A study was conducted to determine whether the compositions of the present invention, designed as PAT inhibitors, had other activities on the PA system. Specifically, the ability of DACS to inhibit an enzyme involved in PA recycling was evaluated. The method used was as described in Casero, R. A. et al., Biochem. J270:615–620 (1990) hereby incorporated by reference in its entirety. This assay measures the incorporation of ^14C-labeled acetyl CoA into spermidine to form acetylspermidine. Varying concentrations of DACS were added to a reaction mixture containing HEPES buffer, pH 7.8, 1 mM spermidine, and 1 mM ^14C-Acetyl CoA. The product is isolated by binding to phosphocellulose filter paper and the extent of reaction is determined by scintillation counting.

In data set [5] the test system is polyamine transporter (PATr). Put plainly: Polyamine transport (PAT) inhibition assay in MDA-MB-231 cells. It counts as cell-based, human. The source holds these as a separate data set.
The subject of data set [6] is T-cell acute lymphoblastic leukemias (ALL), glioblastomas, prostate, and colon cell lines. Put plainly: In vitro test in combination with ODC inhibitors against several human cancer cell lines. It counts as cell-based. Here is the method:
DACS was tested in vitro in combination with ODC inhibitors against several human cancer cell lines. These include T-cell acute lymphoblastic leukemias (ALL), glioblastomas, prostate, and colon cell lines.

Data set [7] relates to MDA-MB-231 human breast carcinoma cells. Put plainly: Growth assay of MDA-MB-231 cells with and without ODC inhibitor (DFMO), 1 μM spermidine. The following applies: for R: ratio of the IC50 in the absence of DFMO over the IC50 in the presence of DFMO, MDA growth assay. It counts as cell-based. The source says: The ratio, R is the IC50 for […] relative to the IC50 for the polyamine analogue combined with an ODC inhibitor. This value of R, indicates the relative level of “synergism” between the polyamine analogue and ODC inhibitor.

Data set [8] relates to murine L1210 leukemia cells. Conditions: cited from earlier work.
Data set [9] concerns neoplastic vessels. The following applies: one month of treatment, humans with cervical interepithelial neoplasia; cited from earlier work.
Data set [10] deals with cancer cells. Conditions: cited from earlier work.
Where [11] appears, read: parallel library products, purity estimated greater than 80%, read-out: Ki μM, Inhibition of the Polyamine Transporter in MDA-MB-231 Cell Line.
Where [12] appears, read: MDA-MB-231 cell PATr, read-out: Ki for the PATr.

Sequence of spermidine/spermine acetyltransferase (SSAT) (P21673 whole entry, species assumed): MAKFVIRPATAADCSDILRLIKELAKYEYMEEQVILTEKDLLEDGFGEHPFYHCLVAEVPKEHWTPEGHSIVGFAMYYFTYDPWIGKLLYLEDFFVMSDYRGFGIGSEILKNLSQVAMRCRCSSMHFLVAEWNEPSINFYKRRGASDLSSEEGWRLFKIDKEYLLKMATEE

`NCCCNCCCCNCCCNS(=O)(=O)c1cccc2ccccc12`: in data set [1] (setting [11]), the Ki is 0.19 µM.

As for `NCCCCNS(=O)(=O)c1cccc2ccccc12`, in data set [1] (setting [11]), the Ki was greater than 30 µM.

For `NCCCNCCCCNCCCNS(=O)(=O)c1ccc2ccccc2c1`, the Ki in [1] (setting [11]) was 0.15 µM.

For `NCCCCNS(=O)(=O)c1ccc2ccccc2c1`, in data set [1] (setting [11]), the Ki was 5 µM.

In the case of `CC1(C)C2CCC1(CS(=O)(=O)NCCCNCCCCNCCCN)C(=O)C2` (stereo not shown), the inhibition constant (Ki) in data set [1] (setting [11]) was greater than 10 µM.

`CC1(C)C2CCC1(CS(=O)(=O)NCCCCN)C(=O)C2` (stereo not shown): the Ki in data set [1] (setting [11]) was greater than 30 µM.

On to `CN(C)c1cccc2c(S(=O)(=O)NCCCNCCCCNCCCN)cccc12` [Compound 3, N^1-dansylspermine], for which the Ki in data set [1] (setting [12]) came out at 0.08 µM. Moreover, the intracellular localization entry in data set [2] was “localize specifically to the nucleoli and the nuclear membrane”. Further, the “uptake of the fluorescent probe into cells” value in [2] (1 μM, 10 minute incubation at 37° C.) was “took up the labeled material”. Moreover, the “displacement of 3H-spermidine in the transport assay” value in data set [3] (A172 cells) is recorded as “competitively displace”.

As for `CN(C)c1cccc2c(S(=O)(=O)NCCCCCC(=O)NCCCNCCCCNCCCN)cccc12` [Compound 4, N^1-[(N^6-dansyl)-6-aminocaproyl]spermine], in [4], the “inhibition of SSAT enzymatic activity” value is reported as “inhibited spermidine/spermine acetyltransferase (SSAT) in a dose-related manner”. For the same molecule, the Ki was 5.4 nM in [5] (putrescine uptake, read-out: Ki, putrescine uptake) and 8 nM in data set [5] (spermidine uptake, read-out: Ki, spermidine uptake). In addition, the “effectiveness against tumor cell lines in vitro” value in data set [6] is listed as “effective against all these tumor cell lines in vitro”. For the same molecule, the cell growth reduced in [7] (DACS plus ODC inhibitor in the presence of polyamines, by day 3) was determined as 69%. The IC50 in data set [7] (Homo sapiens, MDA-MB-231, with ODC inhibitor, 1.0 μM supplemented polyamines, read-out: IC50 for growth in combination with an ODC inhibitor) came out at 600 nM. Moreover, the “concentration at which the compound alone becomes growth inhibitory” value in data set [7] (alone, without ODC inhibitor) stood at 300 µM. Moreover, the “prevention of rescue from ODC inhibition by natural polyamines” value in data set [7] (putrescine, spermidine, N1-acetylspermine and N1-acetylspermidine) is “prevents”. Besides, the R in data set [7] was 400.

Regarding `NCCCNCCCCNCCCNC(=O)CCCCCNS(=O)(=O)c1ccc(CNC(=O)c2ccc(Cl)cc2)s1` [Compound 5, N^1-[(N^6–5-(4-chlorobenzamidomethyl)-thiophene-2-sulfonyl)-6-aminocaproyl]spermine], in data set [7], the R is 210.

For the molecule `NCCCNCCCCNCCCNC(=O)CCCCCNS(=O)(=O)c1ccc2oc3ccccc3c2c1` [Compound 6], the R in data set [7] is given as 220.

For `NCCCNCCCCNCCCNS(=O)(=O)c1ccc2ccc3cccc4ccc1c2c34` [Compound 15, N^1-(1-pyrenylsulfonyl)spermine], the Ki in data set [1] (setting [12]) amounted to 0.091 µM.

Regarding `CN(C)CCCN1c2ccccc2CCc2ccccc21` [Compound 165, imipramine, reference compound], the “inhibition of the PAT assay” value in data set [1] (MDA cell line) and in data set [3] (A172 cell line) was “inhibited the PAT assay” each time. The Ki turned out to be 0.5 µM in data set [1] (MDA cells, read-out: Ki, non-competitive inhibitor of PAT) and 41 nM in [3] (A172 cells, read-out: Ki, non-competitive inhibitor of PAT). Besides, the “inhibition of polyamine transport” value in data set [1] (cell line not stated at the place (Example XXII: A172 and MDA)) was “inhibited polyamine transport”.

Turning to `NCCC[C@](N)(C(=O)O)C(F)F` [DFMO, α-difluoromethylornithine], the survival in [8] (DFMO mice transplanted with PAT-deficient L1210 cells) is on record as greater than 60 days. Also, in [8] (mice with wild-type L1210 cells (intact PAT), treated with DFMO), the time to death was 12 days. In addition, in data set [9], the “reduction in neoplastic vessel count” value was 50%.

For the molecule `NCCCCN(CCCN)CCCNC(=O)CCCc1ccc(N(CCCl)CCCl)cc1` [chlorambucil-spermidine conjugate], the “fold increase in cytotoxicity compared to chlorambucil alone” value in data set [10] is no more than 225 fold.
